Source: patent US12391737B2, “Soluble NPY2 receptor agonists” (Boehringer Ingelheim International GmbH, priority 2020, dated 2025)

Tests used:
Solubility determination = details: for Sol6: pH 6; for Sol7: pH 7
Summary of the method: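 First, TFA-salt peptide was added to 0.1 M sodium diphosphate (pH 6.4 or 7.0) to 10 mg/ml and shaken 2 h at room temperature. Next, insoluble material was filtered off. Finally, filtrate and control, each 1 mg/ml in 50% acetonitrile, were compared by reversed-phase chromatography.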

[1] = target: T1, Human Neuropeptide Y2 Receptor (Homo sapiens, UniProt P49146); test: Radioligand binding competition assay (RLB); details: Table 3, 125I-PYY(1-36) competition; read-out: Ki
T1 construct: purchased CHEMICON HTS066M
T1 sequence (P49146 1-381): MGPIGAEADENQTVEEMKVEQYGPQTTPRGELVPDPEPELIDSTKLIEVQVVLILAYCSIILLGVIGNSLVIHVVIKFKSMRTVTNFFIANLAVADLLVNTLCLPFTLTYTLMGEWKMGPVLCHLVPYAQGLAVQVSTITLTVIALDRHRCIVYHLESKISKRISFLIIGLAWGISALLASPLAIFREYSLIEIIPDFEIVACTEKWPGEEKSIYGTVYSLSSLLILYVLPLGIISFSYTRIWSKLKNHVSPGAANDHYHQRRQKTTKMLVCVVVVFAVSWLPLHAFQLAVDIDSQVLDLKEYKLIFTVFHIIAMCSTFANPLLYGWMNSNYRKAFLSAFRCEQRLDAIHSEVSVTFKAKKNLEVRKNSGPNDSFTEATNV
Summary of the method: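 Receptor membranes, 0.5 μg/well; buffer 50 mM HEPES/5 mM MgCl2/1 mM CaCl2/0.2% ovalbumin, pH 7.4; 2 h RT, shaking. GF/C filtration, cold HEPES/500 mM NaCl wash, scintillation count. IC50 by nonlinear regression.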

Row | SMILES | Sol6 (Solubility determination) | Sol7 (Solubility determination) | Ki [1]
1 | CC(C)CC(=O)N[C@@H](C)C(=O)N1CCC[C@H]1C(=O)N[C@@H](CCC(=O)O)C(=O)N[C@@H](CCCCNC(=O)CCCCCNC(=O)CC[C@H](NC(=O)CCCCCCCCCCCCCCCCC(=O)O)C(=O)O)C(=O)N1CCC[C@H]1C(=O)N[C@@H](CCC(=O)O)C(=O)N[C@@H](CCC(=O)O)C(=O)N[C@@H](CC(=O)O)C(=O)N[C@@H](C)C(=O)N[C@@H](CCC(=O)O)C(=O)N1CCC[C@H]1C(=O)N[C@@H](CCC(=O)O)C(=O)N[C@@H](CCC(=O)O)C(=O)N[C@@H](CO)C(=O)N[C@@H](CCC(N)=O)C(=O)N[C@@H](CCCNC(=N)N)C(=O)N[C@@H](Cc1ccc(O)cc1)C(=O)N[C@@H](Cc1ccc(O)cc1)C(=O)N[C@H](C(=O)N[C@@H](CO)C(=O)N[C@@H](CC(C)C)C(=O)N[C@@H](CCCNC(=N)N)C(=O)N[C@@H](Cc1c[nH]cn1)C(=O)N[C@@H](Cc1ccc(O)cc1)C(=O)N[C@@H](Cc1ccc(O)cc1)C(=O)N[C@@H](CC(N)=O)C(=O)N[C@@H](Cc1c[nH]c2ccccc12)C(=O)N[C@@H](CC(C)C)C(=O)N[C@H](C(=O)N[C@@H](CCCNC(=N)N)C(=O)N[C@@H](CCC(N)=O)C(=O)N[C@@H](CCCNC(=N)N)C(=O)N[C@@H](Cc1ccc(O)cc1)C(N)=O)[C@@H](C)O)C(C)C [Compound 27, N{alpha-4}-(3-methylbutanoyl)-N{epsilon-7}-(6-[(4S)-4-carboxy-4-(17-carboxyheptadecanamido)butanamido]hexanoyl)[4A,7K,9E,13E,17S,18Q,22V,28Y,30W,31L]-hPYY(4-36)] | 9.1 mg/mL | 9.4 mg/mL | 10.5 nM
2 | CC(C)CC(=O)N[C@@H](C)C(=O)N1CCC[C@H]1C(=O)N[C@@H](CCC(=O)O)C(=O)N[C@@H](CCCCNC(=O)CCCCCNC(=O)CC[C@H](NC(=O)CCCCCCCCCCCCCCCCC(=O)O)C(=O)O)C(=O)N1CCC[C@H]1C(=O)N[C@@H](CCC(=O)O)C(=O)N[C@@H](CCC(=O)O)C(=O)N[C@@H](CC(=O)O)C(=O)N[C@@H](C)C(=O)N[C@H](C(=O)N1CCC[C@H]1C(=O)N[C@@H](CCC(=O)O)C(=O)N[C@@H](CCC(=O)O)C(=O)N[C@H](C(=O)N[C@@H](CCC(N)=O)C(=O)N[C@@H](CCCNC(=N)N)C(=O)N[C@@H](Cc1ccc(O)cc1)C(=O)N[C@@H](Cc1ccc(O)cc1)C(=O)N[C@H](C(=O)N[C@@H](CO)C(=O)N[C@@H](CC(C)C)C(=O)N[C@@H](CCCNC(=N)N)C(=O)N[C@@H](Cc1c[nH]cn1)C(=O)N[C@@H](Cc1ccc(O)cc1)C(=O)N[C@@H](Cc1ccc(O)cc1)C(=O)N[C@@H](CC(N)=O)C(=O)N[C@@H](Cc1c[nH]c2ccccc12)C(=O)N[C@@H](CC(C)C)C(=O)N[C@H](C(=O)N[C@@H](CCCNC(=N)N)C(=O)N[C@@H](CCC(N)=O)C(=O)N[C@@H](CCCNC(=N)N)C(=O)N[C@@H](Cc1ccc(O)cc1)C(N)=O)[C@@H](C)O)C(C)C)C(C)C)[C@@H](C)O [Compound 58, N{alpha-4}-(3-methylbutanoyl)-N{epsilon-7}-(6-[(4S)-4-carboxy-4-(17-carboxyheptadecanamido)butanamido]hexanoyl)-[4A,7K,9E,13T,17V,18Q,22V,28Y,30W,31L]-hPYY(4-36)] | 8.6 mg/mL | 8.8 mg/mL | 3.46 nM
3 | CC[C@H](C)[C@H](NC(=O)[C@H](Cc1ccc(O)cc1)NC(=O)[C@H](Cc1ccc(O)cc1)NC(=O)[C@H](CCCNC(=N)N)NC(=O)[C@H](CCC(N)=O)NC(=O)[C@H](CC(C)C)NC(=O)[C@H](CCC(=O)O)NC(=O)[C@H](CCC(=O)O)NC(=O)[C@@H]1CCCN1C(=O)[C@H](CCC(=O)O)NC(=O)[C@H](C)NC(=O)[C@H](CC(=O)O)NC(=O)[C@H](C)NC(=O)[C@H](CCC(=O)O)NC(=O)[C@@H]1CCCN1C(=O)[C@H](CCCCNC(=O)CCCCCNC(=O)CC[C@H](NC(=O)CCCCCCCCCCCCCCCCC(=O)O)C(=O)O)NC(=O)[C@H](CCC(=O)O)NC(=O)[C@@H]1CCCN1C(=O)[C@H](C)NC(=O)CC(C)C)C(=O)N[C@@H](C)C(=O)N[C@@H](CC(C)C)C(=O)N[C@@H](CCCNC(=N)N)C(=O)N[C@@H](Cc1c[nH]cn1)C(=O)N[C@@H](Cc1ccc(O)cc1)C(=O)N[C@@H](Cc1ccc(O)cc1)C(=O)N[C@@H](CC(N)=O)C(=O)N[C@@H](Cc1c[nH]c2ccccc12)C(=O)N[C@@H](CC(C)C)C(=O)N[C@H](C(=O)N[C@@H](CCCNC(=N)N)C(=O)N[C@@H](CCC(N)=O)C(=O)N[C@@H](CCCNC(=N)N)C(=O)N[C@@H](Cc1ccc(O)cc1)C(N)=O)[C@@H](C)O [Compound 1, N{alpha-4}-(3-methylbutanoyl)-N{epsilon-7}-(6-[(4S)-4-carboxy-4-(17-carboxyheptadecanamido)butanamido]hexanoyl)[4A,7K,9E,10A,13E,18Q,22I,23A,28Y,30W,31L]-hPYY(4-36)] | 10.0 mg/mL | 7.6 mg/mL | 2.05 nM

Second part, the molecule after the results:

Row | Sol6 (Solubility determination) | Sol7 (Solubility determination) | Ki [1] | SMILES
4 | 9.2 mg/mL | 9.2 mg/mL | 2.33 nM | CC[C@H](C)[C@H](NC(=O)[C@H](Cc1ccc(O)cc1)NC(=O)[C@H](Cc1ccc(O)cc1)NC(=O)[C@H](CCCNC(=N)N)NC(=O)[C@H](CCC(N)=O)NC(=O)[C@H](CC(C)C)NC(=O)[C@H](CCC(=O)O)NC(=O)[C@H](CCC(=O)O)NC(=O)[C@@H]1CCCN1C(=O)[C@@H](NC(=O)[C@H](C)NC(=O)[C@H](CC(=O)O)NC(=O)[C@H](CCC(=O)O)NC(=O)[C@H](CCC(=O)O)NC(=O)[C@@H]1CCCN1C(=O)[C@H](CCCCNC(=O)CCCCCNC(=O)CC[C@H](NC(=O)CCCCCCCCCCCCCCCCC(=O)O)C(=O)O)NC(=O)[C@H](CCC(=O)O)NC(=O)[C@@H]1CCCN1C(=O)[C@H](C)NC(=O)CC(C)C)[C@@H](C)O)C(=O)N[C@@H](CO)C(=O)N[C@@H](CC(C)C)C(=O)N[C@@H](CCCNC(=N)N)C(=O)N[C@@H](Cc1c[nH]cn1)C(=O)N[C@@H](Cc1ccc(O)cc1)C(=O)N[C@@H](Cc1ccc(O)cc1)C(=O)N[C@@H](CC(N)=O)C(=O)N[C@@H](Cc1c[nH]c2ccccc12)C(=O)N[C@@H](CC(C)C)C(=O)N[C@H](C(=O)N[C@@H](CCCNC(=N)N)C(=O)N[C@@H](CCC(N)=O)C(=O)N[C@@H](CCCNC(=N)N)C(=O)N[C@@H](Cc1ccc(O)cc1)C(N)=O)[C@@H](C)O [Compound 66, N{alpha-4}-(3-methylbutanoyl)-N{epsilon-7}-(6-[(4S)-4-carboxy-4-(17-carboxyheptadecanamido)butanamido]hexanoyl)-[4A,7K,9E,13T,18Q,22I,28Y,30W,31L]-hPYY(4-36)]
5 | 9.8 mg/mL | 5.7 mg/mL | 1.01 nM | CC[C@H](C)[C@H](NC(=O)[C@H](Cc1ccc(O)cc1)NC(=O)[C@H](Cc1ccc(O)cc1)NC(=O)[C@H](CCCNC(=N)N)NC(=O)[C@H](CCC(N)=O)NC(=O)[C@H](CC(C)C)NC(=O)[C@H](CCC(=O)O)NC(=O)[C@H](CCC(=O)O)NC(=O)[C@@H]1CCCN1C(=O)[C@@H](NC(=O)[C@H](C)NC(=O)[C@H](CC(=O)O)NC(=O)[C@H](C)NC(=O)[C@H](CCC(=O)O)NC(=O)[C@@H]1CCCN1C(=O)[C@H](CCCCNC(=O)CCCCCNC(=O)CC[C@H](NC(=O)CCCCCCCCCCCCCCCCC(=O)O)C(=O)O)NC(=O)[C@H](CCC(=O)O)NC(=O)[C@@H]1CCCN1C(=O)[C@H](C)NC(=O)CC(C)C)[C@@H](C)O)C(=O)N[C@@H](C)C(=O)N[C@@H](CC(C)C)C(=O)N[C@@H](CCCNC(=N)N)C(=O)N[C@@H](Cc1c[nH]cn1)C(=O)N[C@@H](Cc1ccc(O)cc1)C(=O)N[C@@H](Cc1ccc(O)cc1)C(=O)N[C@@H](CC(N)=O)C(=O)N[C@@H](Cc1c[nH]c2ccccc12)C(=O)N[C@@H](CC(C)C)C(=O)N[C@H](C(=O)N[C@@H](CCCNC(=N)N)C(=O)N[C@@H](CCC(N)=O)C(=O)N[C@@H](CCCNC(=N)N)C(=O)N[C@@H](Cc1ccc(O)cc1)C(N)=O)[C@@H](C)O [Compound 100, N{alpha-4}-(3-methylbutanoyl)-N{epsilon-7}-(6-[(4S)-4-carboxy-4-(17-carboxyheptadecanamido)butanamido]hexanoyl)-[4A,7K,9E,10A,13T,18Q,22I,23A,28Y,30W,31L]-hPYY(4-36)]
6 | 9.6 mg/mL | 8.8 mg/mL | 4.42 nM | CC(C)CC(=O)N[C@@H](C)C(=O)N1CCC[C@H]1C(=O)N[C@@H](CCC(=O)O)C(=O)N[C@@H](CCCCNC(=O)CCCCCNC(=O)CC[C@H](NC(=O)CCCCCCCCCCCCCCCCC(=O)O)C(=O)O)C(=O)N1CCC[C@H]1C(=O)N[C@@H](CCC(=O)O)C(=O)N[C@@H](CCC(=O)O)C(=O)N[C@@H](CC(=O)O)C(=O)N[C@@H](C)C(=O)N[C@@H](CCC(=O)O)C(=O)N1CCC[C@H]1C(=O)N[C@@H](CCC(=O)O)C(=O)N[C@@H](CCC(=O)O)C(=O)N[C@@H](CC(C)C)C(=O)N[C@@H](CCC(N)=O)C(=O)N[C@@H](CCCNC(=N)N)C(=O)N[C@@H](Cc1ccc(O)cc1)C(=O)N[C@@H](Cc1ccc(O)cc1)C(=O)N[C@H](C(=O)N[C@@H](CO)C(=O)N[C@@H](CC(C)C)C(=O)N[C@@H](CCCNC(=N)N)C(=O)N[C@@H](Cc1c[nH]cn1)C(=O)N[C@@H](Cc1ccc(O)cc1)C(=O)N[C@@H](Cc1ccc(O)cc1)C(=O)N[C@@H](CC(N)=O)C(=O)N[C@@H](Cc1c[nH]c2ccccc12)C(=O)N[C@@H](CC(C)C)C(=O)N[C@H](C(=O)N[C@@H](CCCNC(=N)N)C(=O)N[C@@H](CCC(N)=O)C(=O)N[C@@H](CCCNC(=N)N)C(=O)N[C@@H](Cc1ccc(O)cc1)C(N)=O)[C@@H](C)O)C(C)C [Compound 126, N{alpha-4}-(3-methylbutanoyl)-N{epsilon-7}-(6-[(4S)-4-carboxy-4-(17-carboxyheptadecanamido)butanamido]hexanoyl)-[4A,7K,9E,13E,18Q,22V,28Y,30W,31L]-hPYY(4-36)]
